Values after ≈ are worked out from the molar mass of the structure shown.
How the values were obtained:
mouse = experiment: Toxicity on administration to the abdominal cavity; type: in vivo; details: 100 mg/kg
Text: Benastatins A and B were each administered to the abdominal cavity of a mouse to examine the toxicity thereof.

[1] = test system: Staphylococcus aureus No. 17 (MRSA); experiment: Agar dilution assay, minimum growth inhibition concentration; type: cell-based; details: read-out: Minimum growth-inhibition concentration
Escherichia coli NIHJ = experiment: as above; type: cell-based; details: Escherichia coli, read-out: Minimum growth-inhibition concentration
Proteus rettgeri GN311 = experiment: as above; type: cell-based; details: Providencia rettgeri, GN311, read-out: Minimum growth-inhibition concentration
[2] = test system: Klebsiella pneumoniae PCI602; experiment: as above; type: cell-based; details: Klebsiella pneumoniae, PCI602, read-out: Minimum growth-inhibition concentration
[3] = test system: Pseudomanas aeruginosa A3; experiment: as above; type: cell-based; details: read-out: Minimum growth-inhibition concentration
[4] = test system: Mycabacterium smegmatis ATCC607; experiment: as above; type: cell-based; details: read-out: Minimum growth-inhibition concentration
Aspergillus niger F-16 = experiment: as above; type: cell-based; details: Aspergillus niger, F16, read-out: Minimum growth-inhibition concentration
[5] = test system: murine spleen cells (LPS-induced lymphocyte blastogenesis); experiment: Effect on LPS-induced murine lymphocyte blastogenesis in vitro (Test 4); type: cell-based, BALB/c mouse
Protocol: (§1) In lymphocyte blast formation reaction, use was made of benastatin B as a solution prepared in a manner, wherein benastatin B was dissolved in methanol and admixed with PBS(-), with the proviso that the concentration of methanol in the final solution was 0.5%.
(§2) (a) Effect on lymphocyte blast formation reaction
(§3) For the cultivation, use was made of RPMI 1640 culture medium supplemented with 20% bovine fetus serum, 25 mM Hepes buffer, 100 μg/ml streptomycin and 100 units/ml penicillin G. The cultivation was carried out in a microplate (COSTAR) with flat bottom and with 96 wells. As the mitogens, lipopolysaccharide (LPS) and concanavalin A (Con A) were used at the final concentrations of 100 μg/ml and 5 μg/ml, respectively.
(§4) Spleen cells were taken out from BALB/c mouse (female, at most 20 weeks old) to prepare a unicellular dispersion of spleen cells. This dispersion was subjected to a hyper shock treatment to remove erythrocytes therefrom. The resulting spleen cell sample was directly used in the test employing LPS. Alternatively, the spleen cell sample was filtered through Nylon Fiber (manufactured by Wako Jun-yaku Co., Ltd.) for removing […] therefrom, and then the cell sample was used in the test employing Con A.
(§5) Each well was charged with 0.2 ml of a test sample containing 2×10^5 murine spleen cells and the test compound at a predetermined concentration. The cultivation was effected for 72 hours. Before 8 hours from the termination of the cultivation, the wells each were charged with 37 KBq of [^3 H]-thymidine in order to determine the amount of thymidine taken into the cells. The effect of the test compound was estimated by comparing the test samples with the control samples, with respect to the amount of [^3 H]-thymidine taken into the cells.

[6] = test system: graft versus host reaction (GvH); experiment: Effect on graft versus host reaction (GvH) in vivo; set-up: species or system mouse (C57BL/6 spleen cells into BDF1 mouse); details: for Spleen/body weight / Index (spleen/body weight; non induced = 1.00): subcutaneous, 3 days, day 7; for Index (spleen/body weight; non induced = 1.00): induced = 1.84
Text: In the graft versus host reaction (GvH), use was made of benastatin B dissolved in physiological saline.
(b) Effect on graft versus host reaction (GvH)
The effect on GvH was estimated according to a modified method based on the method described in M. Simonsen et al, "A study of the graft versus host reaction in transplantation to embryos, F1 hybrids, and irradiated animals", Ann. N.Y. Acad. Sci., 73, 834-841 ([…]).
Spleen cells were taken out from C57BL/6 mouse (female, 10 weeks old) to prepare a murine spleen cell sample containing 5×10^6 spleen cells according to the method as mentioned above. The spleen cell sample was transplanted into the abdominal cavity of BDF1 mouse (7 days old) as the F1 acceptor. The test compound at a predetermined concentration was subcutaneously injected over a period of time of 3 days including the initial day of said transplantation. After 7 days from the inital transplantation, measurements were made about the body weight and the spleen weight of the BDF1 mouse to calculate the ratio (mg/g) of spleen weight (mg) to body weight (g).

[7] = test system: murine spleen cells (Con A-induced lymphocyte blastogenesis); experiment: Effect on Con A-induced murine lymphocyte blastogenesis in vitro (Test 4); type: cell-based, BALB/c mouse; details: Mus musculus, 72 h
Protocol: as §1, §2, §3, §4, §5

[8] = test system: Shigella dysenteriae JS11910; experiment: Agar dilution assay, minimum growth inhibition concentration; type: cell-based; details: JS11910, read-out: Minimum growth-inhibition concentration
Candida tropicalis F-1 = experiment: as above; type: cell-based; details: Candida tropicalis, F1, read-out: Minimum growth-inhibition concentration
Pyricularia oryzae = experiment: microbe, parasite or virus in culture; type: cell-based; details: read-out: Minimum growth-inhibition concentration
[9] = test system: Staphylococcus aureus No. 5 (MRSA); experiment: Agar dilution assay, minimum growth inhibition concentration; type: cell-based; details: read-out: Minimum growth-inhibition concentration
[10] = Mus musculus, Lymphocyte, 72 h, read-out: Stimulation index LPS
[11] = read-out: Stimulation index Con A

SMILES: CCCCCc1cc2c(c(O)c1C(=O)O)-c1cc3c(c(O)c1CC2)C(=O)c1c(O)cc(O)cc1C3(C)C [Benastatin B, benastatin B]
- Toxicity (mouse): No toxicity was observed
- MIC [1]: 3.12 µg/mL (≈ 6.21 µM)
- MIC (Escherichia coli NIHJ): 100 µg/mL (≈ 199 µM)
- MIC (Proteus rettgeri GN311): 50 µg/mL (≈ 99.5 µM)
- MIC [2]: > 50 µg/mL
- MIC [3]: 50 µg/mL (≈ 99.5 µM)
- MIC [4]: 12.5 µg/mL (≈ 24.9 µM)
- MIC (Aspergillus niger F-16): > 100 µg/mL
- activity at 6.25 µg/mL [5, 10]: 138%
- activity at 12.5 µg/mL [5, 10]: 58.9%
- activity at 50 µg/mL [5, 10]: 0.4%
- activity at 3.13 µg/mL ([5]; Mus musculus, Lymphocyte, 72 h, 3.13 μg/ml, control = 100, read-out: Stimulation index LPS): 148%
- activity at 25 µg/mL ([5]; Mus musculus, Lymphocyte, 72 h, 25 μg/ml, control = 100, read-out: Stimulation index LPS): 0.2%
- activity at 100 µg/mL ([5]; Mus musculus, Lymphocyte, 72 h, 100 μg/ml, control = 100, read-out: Stimulation index LPS): 0.2%
- minimal effective concentration ([5]; Mus musculus, Lymphocyte, 72 h, read-out: concentration that significantly suppresses LPS-induced lymphocyte blast formation): ≥ 12.5 µg/mL
- effect on LPS-induced lymphocyte blast formation at a low concentration ([5]; low concentration): potentiates
- Spleen/body weight ([6]; 0.5 mg/kg): 12.5 ± 2.2 mg/kg
- Index (spleen/body weight; non induced = 1.00) ([6]; 0.5 mg/kg): 2.78
- Spleen/body weight ([6]; 5 mg/kg): 11.5 ± 0.8 mg/kg
- Index (spleen/body weight; non induced = 1.00) ([6]; 5 mg/kg): 2.56
- Spleen/body weight ([6]; 50 mg/kg): 10.6 ± 1.3 mg/kg
- Index (spleen/body weight; non induced = 1.00) ([6]; 50 mg/kg): 2.36
- effect on GvH ([6]; various amounts, strongest in a lower amount): significantly promotes GvH
- activity at 3.13 µg/mL ([7]; 3.13 μg/ml, control = 100, read-out: Stimulation index Con A): 106%
- activity at 25 µg/mL ([7]; 25 μg/ml, control = 100, read-out: Stimulation index Con A): 1%
- activity at 100 µg/mL ([7]; 100 μg/ml, control = 100, read-out: Stimulation index Con A): 0.9%
- activity at 6.25 µg/mL [7, 11]: 12.6%
- activity at 12.5 µg/mL [7, 11]: 26.8%
- activity at 50 µg/mL [7, 11]: 1%
- minimal effective concentration ([7]; read-out: concentration that significantly suppresses Con A-induced lymphocyte blast formation): ≥ 6.25 µg/mL
- MIC [8]: > 50 µg/mL
- MIC (Candida tropicalis F-1): > 50 µg/mL
- MIC (Pyricularia oryzae): 50 µg/mL (≈ 99.5 µM)
- MIC [9]: 3.12 µg/mL (≈ 6.21 µM)
